# Test results from US9944645B2, “Imidazotriazines and imidazopyrimidines as kinase inhibitors” (Incyte Holdings Corporation, priority 2006, dated 2018).
# Biological target: c-Met kinase (h-Met; histidine-tagged c-Met catalytic domain fusion protein) (Homo sapiens (Human), UniProt P08581)
# Assay: In Vitro c-Met Kinase Enzyme Assays
# Assay type: biochemical
# Details: phosphorylation of poly Glu-Tyr, 5 μM ATP, 25 minutes at 30° C.
# Method: Compounds were screened in vitro for their ability to inhibit c-Met kinase activity. […] Briefly, histidine-tagged c-Met catalytic domain fusion protein (Invitrogen, #PV3143) was used for the assay. […] The reaction lasted for 25 minutes at 30° C. After the reaction was completed, the contents of the plates was discarded. Plates were then washed with TBS-T (250 μL/well, 5×) and then blocked with TBS-T containing 1% BSA for 2 hours. The contents of the plates was discarded, and 100 μL (per well) of peroxidase-labeled anti-phospho-tyrosine antibody (Sigma, #A5964) diluted (1:60,000) in 1% BSA containing TBS-T were then added and incubated for 1 hour. Plates were washed with TBS-T ([…], 5×) and followed by the color reaction using 100 μL (1:1 mixture) of H2O2 and tetramethylbenzidine (R&D Systems, #DY999). The reaction was stopped in minutes with 100 μL of 2 N H2SO4. The optical density was measured immediately using a microplate reader at 450 nm with wavelength correction at 540 nm. IC50 values were calculated with the GraphPad Prism software. The linear range (i.e., the time period over which the rate remained equivalent to the initial rate) was determined for the kinase and IC50 determinations were performed within this range.
# Sequence of c-Met kinase (h-Met; histidine-tagged c-Met catalytic domain fusion protein) (P08581 1078-1345): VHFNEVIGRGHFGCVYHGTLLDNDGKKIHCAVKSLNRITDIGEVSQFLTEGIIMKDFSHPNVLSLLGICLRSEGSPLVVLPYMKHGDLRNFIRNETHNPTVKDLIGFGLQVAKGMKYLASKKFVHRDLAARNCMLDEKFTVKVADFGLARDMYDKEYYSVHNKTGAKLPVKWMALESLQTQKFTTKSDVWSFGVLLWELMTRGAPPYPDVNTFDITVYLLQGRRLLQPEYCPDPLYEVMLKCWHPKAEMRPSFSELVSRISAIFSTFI
row,IC50,Structure (SMILES)
1,< 500 nM,"CC(C)(C)[C@H](NC(=O)c1ccc(-c2cnc3ncc(C4(c5ccc6ncccc6c5)CC4)n3c2)cn1)C(=O)N1CCC1 [Example 58, N-[(1S)-1-(Azetidin-1-ylcarbonyl)-2,2-dimethylpropyl]-5-[3-(1-quinolin-6-ylcyclopropyl)imidazo[1,2-a]pyrimidin-6-yl]pyridine-2-carboxamide]"
2,< 500 nM,"O=C(NC1CCN(c2ccccn2)CC1)c1ccc(-c2cnc3ncc(C4(c5ccc6ncccc6c5)CC4)n3c2)cc1 [Example 33, N-(1-Pyridin-2-ylpiperidin-4-yl)-4-[3-(1-quinolin-6-ylcyclopropyl)imidazo[1,2-a]pyrimidin-6-yl]benzamide]"
3,< 500 nM,"CN(C)C(=O)c1ccc(-c2ccc(-c3cnc4ncc(C5(c6ccc7ncccc7c6)CC5)n4c3)cc2F)cn1 [Example 86, 5-{2-Fluoro-4-[3-(1-quinolin-6-ylcyclopropyl)imidazo[1,2-a]pyrimidin-6-yl]phenyl}-N,N-dimethylpyridine-2-carboxamide]"
4,< 500 nM,"O=C1c2ccc(-c3cnc4ncc(C5(c6ccc7ncccc7c6)CC5)n4c3)cc2CN1C1CC1 [Example 182, 2-Cyclopropyl-5-[3-(1-quinolin-6-ylcyclopropyl)imidazo[1,2-a]pyrimidin-6-yl]isoindolin-1-one]"
5,< 500 nM,"CN(C)C(=O)c1cccc(-c2cnc3ncc(C4(c5ccc6ncccc6c5)CC4)n3c2)c1 [Example 48, N,N-Dimethyl-3-[3-(1-quinolin-6-ylcyclopropyl)imidazo[1,2-a]pyrimidin-6-yl]benzamide]"
6,< 500 nM,"CNC(=O)c1c(F)cc(-c2cnc3ncc(C4(c5ccc6ncccc6c5)CC4)n3c2)cc1F [Example 195, 6-Difluoro-N-methyl-4-[3-(1-quinolin-6-ylcyclopropyl)imidazo[1,2-a]pyrimidin-6-yl]benzamide]"
7,< 500 nM,"O=C(NCc1ccccn1)c1ccc(-c2cnc3ncc(C4(c5ccc6ncccc6c5)CC4)n3c2)cc1F [Example 165, 2-Fluoro-N-(pyridin-2-ylmethyl)-4-[3-(1-quinolin-6-ylcyclopropyl)imidazo[1,2-a]pyrimidin-6-yl]benzamide]"
8,< 500 nM,"CNC(=O)C(O)c1ccc(-c2cnc3ncc(C4(c5ccc6ncccc6c5)CC4)n3c2)cc1F (centres unmarked) [Example 190, 2-{2-Fluoro-4-[3-(1-quinolin-6-ylcyclopropyl)imidazo[1,2-a]pyrimidin-6-yl]phenyl}-2-hydroxy-N-methylacetamide]"
9,< 500 nM,"O=C(NC1CC1)c1ccc(-c2cnc3ncc(C4(c5ccc6ncccc6c5)CC4)n3c2)cc1F [Example 170, N-Cyclopropyl-2-fluoro-4-[3-(1-quinolin-6-ylcyclopropyl)imidazo[1,2-a]pyrimidin-6-yl]benzamide]"
10,< 500 nM,"COCC1(NC(=O)c2ccc(-c3cnc4ncc(C5(c6ccc7ncccc7c6)CC5)n4c3)cc2)CCC1 [Example 36, N-[1-(Methoxymethyl)cyclobutyl]-4-[3-(1-quinolin-6-ylcyclopropyl)imidazo[1,2-a]pyrimidin-6-yl]benzamide]"
11,< 500 nM,"Fc1ccc(-c2cnc3ncc(C4(c5ccc6ncccc6c5)CC4)n3c2)cc1 [Example 6, 6-(1-(6-(4-Fluorophenyl)imidazo[1,2-a]pyrimidin-3-yl)cyclopropyl)quinoline]"
12,< 500 nM,"Cn1cc(-c2ccc(-c3cnc4ncc(C5(c6ccc7ncccc7c6)CC5)n4c3)cc2F)cn1 [Example 87, 6-(1-{6-[3-Fluoro-4-(1-methyl-1H-pyrazol-4-yl)phenyl]imidazo[1,2-a]pyrimidin-3-yl}cyclopropyl)quinoline]"
13,< 500 nM,"CNC(=O)c1ccc(-c2cnc3ncc(C4(c5ccc6ncccc6c5)CC4)n3c2)cc1Cl [Example 174, 2-Chloro-N-methyl-4-[3-(1-quinolin-6-ylcyclopropyl)imidazo[1,2-a]pyrimidin-6-yl]benzamide]"

# More lines, now with the values behind:
row,Structure (SMILES),IC50
1,"O=C(NCCO)c1ccc(-c2cnc3ncc(Cc4ccc5ncccc5c4)n3n2)cc1F [Example 143, 2-Fluoro-N-(2-hydroxyethyl)-4-[7-(quinolin-6-ylmethyl)imidazo[1,2-b][1,2,4]triazin-2-yl]benzamide]",< 500 nM
2,"CCOC(=O)N1CCC(CC#N)(n2cc(-c3cnc4ncc(Cc5ccc6ncccc6c5)n4n3)cn2)CC1 [Example 204, Ethyl 4-(cyanomethyl)-4-{4-[7-(quinolin-6-ylmethyl)imidazo[1,2-b][1,2,4]triazin-2-yl]-1H-pyrazol-1-yl}piperidine-1-carboxylate]",< 500 nM
3,"COCC1(NC(=O)c2ccc(-c3cnc4ncc(C(C)c5ccc6ncccc6c5)n4n3)cc2F)CC1 (centres unmarked) [Example 162, 2-Fluoro-N-[1-(methoxymethyl)cyclopropyl]-4-[7-(1-quinolin-6-ylethyl)imidazo[1,2-b][1,2,4]triazin-2-yl]benzamide]",< 500 nM
4,"O=C(NCCN1CCCCC1)c1ccc(-c2cnc3ncc(Cc4ccc5ncccc5c4)n3n2)cc1F [Example 149, 2-Fluoro-N-(2-piperidin-1-ylethyl)-4-[7-(quinolin-6-ylmethyl)imidazo[1,2-b][1,2,4]triazin-2-yl]benzamide]",< 500 nM
5,"CC(C)(C)[C@@H](CO)NC(=O)c1ccc(-c2cnc3ncc(Cc4ccc5ncccc5c4)n3n2)cc1F [Example 157, 2-Fluoro-N-[(1S)-1-(hydroxymethyl)-2,2-dimethylpropyl]-4-[7-(quinolin-6-ylmethyl)imidazo[1,2-b][1,2,4]triazin-2-yl]benzamide]",< 500 nM
6,"CN(C)C(=O)Cn1cc(-c2ccc(-c3cnc4ncc(C5(c6ccc7ncccc7c6)CC5)n4c3)cc2F)cn1 [Example 84, 2-(4-{2-Fluoro-4-[3-(1-quinolin-6-ylcyclopropyl)imidazo[1,2-a]pyrimidin-6-yl]phenyl}-1H-pyrazol-1-yl)-N,N-dimethylacetamide]",< 500 nM
7,"COc1ccc(Sc2cnc3ncc(-c4ccc(Br)c(F)c4)nn23)cc1 [Example 8, 2-(4-Bromo-3-fluorophenyl)-7-[(4-methoxyphenyl)thio]imidazo[1,2-b][1,2,4]triazine]",< 500 nM
8,"CN(C)C(=O)N1CCC(n2cc(-c3cnc4ncc(C5(c6ccc7ncccc7c6)CC5)n4c3)cn2)CC1 [Example 91, N,N-Dimethyl-4-{4-[3-(1-quinolin-6-ylcyclopropyl)imidazo[1,2-a]pyrimidin-6-yl]-1H-pyrazol-1-yl}piperidine-1-carboxamide]",< 500 nM
9,"CN(C)CCNC(=O)c1ccc(-c2cnc3ncc(Cc4ccc5ncccc5c4)n3n2)cc1F [Example 148, N-[2-(Dimethylamino)ethyl]-2-fluoro-4-[7-(quinolin-6-ylmethyl)imidazo[1,2-b][1,2,4]triazin-2-yl]benzamide]",< 500 nM
10,"O=C(NC1CCOCC1)c1ccc(-c2cnc3ncc(Cc4ccc5ncccc5c4)n3n2)cc1F [Example 125, 2-Fluoro-4-[7-(quinolin-6-ylmethyl)imidazo[1,2-b][1,2,4]triazin-2-yl]-N-(tetrahydro-2H-pyran-4-yl)benzamide]",< 500 nM
11,COc1ccc(Cc2cnc3ncc(-c4ccc(F)cc4)nn23)cc1 [Example 1],< 500 nM
12,"c1cnc2ccc(C3(c4cnc5ncc(-c6ccc(-n7ccnc7)cc6)nn45)CC3)cc2c1 [Example 99, 6-(1-{2-[4-(1H-Imidazol-1-yl)phenyl]imidazo[1,2-b][1,2,4]triazin-7-yl}cyclopropyl)-quinoline]",< 500 nM
13,"COCC1(NC(=O)c2ccc(-c3cnc4ncc(Cc5ccc6ncccc6c5)n4n3)cc2F)CCOCC1 [Example 145, 2-Fluoro-N-[4-(methoxymethyl)tetrahydro-2H-pyran-4-yl]-4-[7-(quinolin-6-ylmethyl)imidazo[1,2-b][1,2,4]triazin-2-yl]benzamide]",< 500 nM
14,"c1ccc(CN2CCC(n3cc(-c4cnc5ncc(C6(c7ccc8ncccc8c7)CC6)n5c4)cn3)C2)cc1 (centres unmarked) [Example 89, 6-(1-{6-[1-(1-Benzylpyrrolidin-3-yl)-1H-pyrazol-4-yl]imidazo[1,2-a]pyrimidin-3-yl}cyclopropyl)quinoline]",< 3000 nM
15,"O=C(NC1CCN(c2ccccn2)C1)c1ccc(-c2cnc3ncc(C4(c5ccc6ncccc6c5)CC4)n3c2)cc1Cl (centres unmarked) [Example 179, 2-Chloro-N-(1-pyridin-2-ylpyrrolidin-3-yl)-4-[3-(1-quinolin-6-ylcyclopropyl)imidazo[1,2-a]pyrimidin-6-yl]benzamide]",< 500 nM
16,"CC(c1ccc2ncccc2c1)c1cnc2ncc(-c3ccc(C(=O)N[C@@H](C(=O)N(C)C)C(C)C)cc3)nn12 (stereo partly drawn) [Example 122, N-{(1R)-1-[(Dimethylamino)carbonyl]-2-methylpropyl}-4-[7-(1-quinolin-6-ylethyl)imidazo[1,2-b][1,2,4]triazin-2-yl]benzamide]",< 500 nM
17,"O=C(N[C@H]1CC[C@H](O)CC1)c1ccc(-c2cnc3ncc(C4(c5ccc6ncccc6c5)CC4)n3n2)cc1F [Example 100, 2-Fluoro-N-(trans-4-hydroxycyclohexyl)-4-[7-(1-quinolin-6-ylcyclopropyl)imidazo[1,2-b][1,2,4]triazin-2-yl]benzamide]",< 500 nM
18,"NC(=O)Cn1cc(-c2cnc3ncc(Cc4ccc5ncccc5c4)n3n2)cn1 [Example 140, 2-{4-[7-(Quinolin-6-ylmethyl)imidazo[1,2-b][1,2,4]triazin-2-yl]-1H-pyrazol-1-yl}acetamide]",< 500 nM
19,"O=C(N[C@H](CO)Cc1ccccc1)c1ccc(-c2cnc3ncc(C4(c5ccc6ncccc6c5)CC4)n3n2)cc1 [Example 111, N-[(1S)-1-Benzyl-2-hydroxyethyl]-4-[7-(1-quinolin-6-ylcyclopropyl)imidazo[1,2-b][1,2,4]triazin-2-yl]benzamide]",< 500 nM
